# Results: patent US20080096924A1, “Amorphous Composition” (ONO PHARMACEUTICAL CO., LTD., priority 2004, published 2008)
# Legend:
# Solubility in water = format: physicochemical; conditions: crystals of compound (I) vs spray-dried amorphous powder with HPMCAS
# [1] = Bioavailability on oral administration; conditions: in vivo, orally administered, read-out: bioavailability (BA)
# CYP3A4 = CYP3A4 (Homo sapiens, UniProt P08684); experiment: Metabolism by metabolic enzyme
# N-type calcium channel = N-type calcium channel (Homo sapiens, UniProt Q00975); conditions: refer to Patent Document 1; cited from earlier work
# Chain of N-type calcium channel (Q00975 whole entry): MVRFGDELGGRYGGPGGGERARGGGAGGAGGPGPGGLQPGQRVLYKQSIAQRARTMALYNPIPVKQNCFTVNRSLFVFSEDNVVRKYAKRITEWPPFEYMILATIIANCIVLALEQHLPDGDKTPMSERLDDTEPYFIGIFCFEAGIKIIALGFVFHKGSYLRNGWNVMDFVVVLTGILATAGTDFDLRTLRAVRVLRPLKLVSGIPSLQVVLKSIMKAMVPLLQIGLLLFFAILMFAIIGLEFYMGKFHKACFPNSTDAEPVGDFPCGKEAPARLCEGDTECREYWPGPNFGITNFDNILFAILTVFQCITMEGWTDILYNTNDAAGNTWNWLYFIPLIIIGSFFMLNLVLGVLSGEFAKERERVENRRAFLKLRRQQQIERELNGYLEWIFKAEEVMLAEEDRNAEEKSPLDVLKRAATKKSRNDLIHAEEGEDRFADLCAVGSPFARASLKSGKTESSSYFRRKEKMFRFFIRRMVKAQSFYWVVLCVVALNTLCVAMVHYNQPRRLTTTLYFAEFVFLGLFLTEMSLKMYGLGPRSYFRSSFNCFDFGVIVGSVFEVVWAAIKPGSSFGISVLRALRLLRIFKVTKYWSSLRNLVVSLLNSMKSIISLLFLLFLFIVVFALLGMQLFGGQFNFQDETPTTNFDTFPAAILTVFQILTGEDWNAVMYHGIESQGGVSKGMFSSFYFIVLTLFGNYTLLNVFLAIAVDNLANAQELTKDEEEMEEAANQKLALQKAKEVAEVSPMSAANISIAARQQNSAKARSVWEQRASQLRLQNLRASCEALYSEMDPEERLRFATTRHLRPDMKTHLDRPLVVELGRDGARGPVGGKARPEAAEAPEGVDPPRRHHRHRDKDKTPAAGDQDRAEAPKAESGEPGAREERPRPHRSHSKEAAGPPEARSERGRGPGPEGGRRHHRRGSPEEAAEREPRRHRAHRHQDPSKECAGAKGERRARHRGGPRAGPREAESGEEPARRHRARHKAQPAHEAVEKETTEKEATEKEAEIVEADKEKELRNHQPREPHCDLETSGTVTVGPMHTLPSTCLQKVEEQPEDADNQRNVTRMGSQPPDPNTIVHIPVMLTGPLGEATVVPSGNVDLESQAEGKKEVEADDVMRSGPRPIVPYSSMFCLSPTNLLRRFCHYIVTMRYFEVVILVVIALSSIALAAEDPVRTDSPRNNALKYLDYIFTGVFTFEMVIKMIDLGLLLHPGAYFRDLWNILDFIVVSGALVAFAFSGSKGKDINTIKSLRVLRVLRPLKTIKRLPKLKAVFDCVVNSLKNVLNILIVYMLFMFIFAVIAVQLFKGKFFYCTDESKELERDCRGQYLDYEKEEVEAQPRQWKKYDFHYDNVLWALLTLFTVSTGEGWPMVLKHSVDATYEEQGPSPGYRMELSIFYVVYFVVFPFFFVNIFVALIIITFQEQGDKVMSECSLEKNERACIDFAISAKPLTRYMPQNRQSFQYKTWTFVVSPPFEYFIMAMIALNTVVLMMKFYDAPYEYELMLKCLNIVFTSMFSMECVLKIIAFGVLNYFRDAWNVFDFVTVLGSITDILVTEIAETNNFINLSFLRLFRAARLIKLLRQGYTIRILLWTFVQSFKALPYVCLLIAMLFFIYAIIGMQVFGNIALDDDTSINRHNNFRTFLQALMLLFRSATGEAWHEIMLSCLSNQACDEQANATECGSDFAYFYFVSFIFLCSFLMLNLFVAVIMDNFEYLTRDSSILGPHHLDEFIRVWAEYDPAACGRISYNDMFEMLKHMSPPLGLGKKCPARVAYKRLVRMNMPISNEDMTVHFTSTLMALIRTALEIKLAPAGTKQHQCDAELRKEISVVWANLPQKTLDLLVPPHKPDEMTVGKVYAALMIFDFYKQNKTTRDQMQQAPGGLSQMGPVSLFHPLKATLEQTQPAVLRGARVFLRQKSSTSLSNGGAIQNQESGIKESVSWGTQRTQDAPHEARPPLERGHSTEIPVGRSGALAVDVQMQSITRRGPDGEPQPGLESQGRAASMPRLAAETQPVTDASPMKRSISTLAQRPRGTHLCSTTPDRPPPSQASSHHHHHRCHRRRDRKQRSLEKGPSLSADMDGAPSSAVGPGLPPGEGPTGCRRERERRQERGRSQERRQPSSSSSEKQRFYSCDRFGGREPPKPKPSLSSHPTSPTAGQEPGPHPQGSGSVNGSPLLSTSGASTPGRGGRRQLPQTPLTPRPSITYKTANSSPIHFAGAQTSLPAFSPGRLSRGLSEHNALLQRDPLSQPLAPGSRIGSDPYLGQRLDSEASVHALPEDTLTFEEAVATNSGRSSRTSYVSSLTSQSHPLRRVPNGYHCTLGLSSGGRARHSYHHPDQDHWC
# Chain of CYP3A4 (P08684 whole entry): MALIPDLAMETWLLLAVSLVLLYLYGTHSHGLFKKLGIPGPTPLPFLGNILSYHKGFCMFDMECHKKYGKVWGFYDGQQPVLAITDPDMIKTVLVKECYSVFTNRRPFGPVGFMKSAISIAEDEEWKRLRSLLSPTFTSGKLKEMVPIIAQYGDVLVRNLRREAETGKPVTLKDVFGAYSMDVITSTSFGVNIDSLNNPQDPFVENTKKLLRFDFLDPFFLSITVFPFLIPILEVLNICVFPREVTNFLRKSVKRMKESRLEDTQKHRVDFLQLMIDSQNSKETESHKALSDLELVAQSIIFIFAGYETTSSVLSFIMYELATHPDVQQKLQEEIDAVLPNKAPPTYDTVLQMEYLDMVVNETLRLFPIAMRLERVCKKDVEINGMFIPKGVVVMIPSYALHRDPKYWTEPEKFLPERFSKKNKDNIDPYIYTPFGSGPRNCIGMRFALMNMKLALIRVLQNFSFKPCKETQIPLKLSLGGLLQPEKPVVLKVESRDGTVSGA
structure (smiles),measurement,setting,value
"CC(C)(C)OC(=O)N1CSC[C@H]1C(=O)N[C@@H](CSCC1CCCCC1)C(=O)NC1CCN(Cc2ccccc2)CC1 [compound (I), (2R)—N-(1-benzylpiperidin-4-yl)-3-cyclohexylmethylthio-2-[(4R)-3-tert-butoxycarbonylthiazolidin-4-ylcarbonylamino]propaneamide]",solubility,Solubility in water,~1.25 µg/mL
same,bioavailability,[1],~0.2%
same,metabolic enzyme,CYP3A4,metabolized by CYP3A4
same,N-type calcium channel inhibiting activity,N-type calcium channel,N-type calcium channel inhibiting activity
